Source: article PMC7367283, “A PIP2 substitute mediates voltage sensor-pore coupling in KCNQ activation” (Communications Biology, 2020)
Several values for one entry are separate records, joined by “and”; a condition that tells them apart may be missing. Equal values may be shown once.

Legend:
KCNQ2 = KCNQ2 (Homo sapiens, UniProt O43526); test: Two-electrode voltage clamp of KCNQ2 in Xenopus oocytes; format: cell-based; conditions: Q2, individual oocytes
From the text: (§1) KCNQ2 and KCNQ3 form a channel complex that carries M currents in neurons. Similar to KCNQ1, these KCNQ subunits require PIP2 for voltage-dependent activation. KCNQ2 alone can express functional channels in Xenopus oocytes, while KCNQ3 alone cannot. However, a single mutation, A315T, allows KCNQ3 to functionally express in Xenopus oocytes. We examined the effects of CP1 on KCNQ2, KCNQ3 with mutation A315T (denoted as KCNQ3*), KCNQ2+KCNQ3, and KCNQ2+KCNQ3* expressed in Xenopus oocytes (Fig. 5a). Similar to the effects on KCNQ1 and IKs channels, CP1 changed the amplitude of currents (Fig. 5b), shifted the G–V relation to more negative voltages (Fig. 5c), and slowed the deactivation kinetics (Fig. 5d) for all of these KCNQ channels. These CP1 effects were relatively small on KCNQ2 as compared with those on other KCNQ channels, and the effects on KCNQ2/KCNQ3* and KCNQ2/KCNQ3 complexes were closer to those on KCNQ2 alone.
(§2) Fig. 5 Subtype selectivity of CP1 on KCNQ channels. a Current traces of KCNQ channels as indicated in the absence and the presence of 10 µM CP1. […]
(§3) The whole-oocyte ionic currents were recorded with a GeneClamp 500B amplifier (Axon Instruments, CA) or iTEV90 amplifier (HEKA, Germany) and then sampled at 1 kHz and low-pass-filtered at 2 kHz. […] The Kir1.1 current was recorded with a high K^+ bath solution containing (in mM) 96 KCl, 4 NaCl, 1 CaCl2, 2 MgCl2, and 10 HEPES, pH 7.3–7.4. The HCN4 current was recorded in ND66 solution containing (in mM) 66 NaCl, 32 KCl, 1.8 CaCl2, 1 MgCl2, and 5 HEPES, pH 7.6. All the other potassium channels were recorded in ND96 solution. The currents of CaV1.2 channel were recorded in 40 mM Ba^2+ bath solution containing (in mM) 40 Ba(OH)2, 50 TEA-OH, 2 KOH, and 5 HEPES, adjusted to pH 7.4 with methanesulfonic acid. […] The HCN4 currents were recorded by a test pulse between −30 and −140 mV in 10-mV step from a holding potential of −30 mV. […]

[1] = target: KCNQ3 with mutation A315T (KCNQ3*) (Homo sapiens, UniProt O43525, A315T); test: Two-electrode voltage clamp of KCNQ3* in Xenopus oocytes; format: cell-based; conditions: Q3*, individual oocytes
From the text: as §1, §2, §3

SMILES: O=S(=O)([O-])Oc1c(-c2sc3c(ccc4cccc(Cl)c43)c2OS(=O)(=O)[O-])[nH]c2ccc(Br)cc12.[Na+].[Na+] [CP1, DISODIUM 5-BROMO-2-[9-CHLORO-3-(SULFONATOOXY) NAPHTHO [1,2-B] THIEN-2-YL]-1H-INDOL-3-YL SULFATE]
- outward current (Icp1/Ictrl) (KCNQ2; 10 µM CP1, at −10 mV): 0.9785 and 0.9995 and 0.8123 and 1.2015 and 0.921 and 1.0361 and 1.0974 and 0.9815
- ∆V1/2 (KCNQ2; 10 µM CP1): 17.7074 mV and 18.0799 mV and 23.5635 mV and 19.0344 mV and 22.5139 mV and 21.9525 mV and 18.3088 mV and 15.6776 mV
- τ deact at -120 mV (KCNQ2; 10 µM CP1 treated): 0.0991 s and 0.1579 s and 0.2146 s and 0.1525 s and 0.1022 s
- outward current (Icp1/Ictrl) ([1]; 10 µM CP1, at −10 mV): 1.2737 and 1.6954 and 1.3889 and 1.1185 and 2.1991
- ∆V1/2 ([1]; 10 µM CP1): 53.8685 mV and 55.0436 mV and 52.8957 mV and 57.617 mV and 27.8181 mV
- τ deact at -120 mV ([1]; 10 µM CP1 treated): 0.795 s and 1.6371 s and 1.4451 s and 1.5742 s and 1.825 s and 1.6646 s
